Results reported in PubChem BioAssay AID179 (DTP/NCI, 2004).
Active and inactive are the calls of the source.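 Rule for the calls: active = compounds giving half or more protection of infected cells from virus-caused growth loss, again on retest; inactive = the rest.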

Test system: CEM cells HIV-1 protection, formazan growth assay
Assay: NCI AIDS Antiviral Assay
Details: for IC50: measured here: growth of uninfected CEM cells
In short: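 CEM (human) cells, HIV-1 infected vs uninfected, 5-point dosing, formazan growth read-out. Retest threshold 50% protection.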

SMILES: O=C(O)CC1CC=CCC1CC(=O)O (stereo unspecified)
- EC50: > 200 µM
- IC50: > 200 µM

SMILES: Cc1ccc(Nc2nc3c(s2)C(=O)c2ccccc2C3=O)cc1
- EC50: > 16.2 µM
- IC50: 6.17 µM

SMILES: O=C(OCCN1CCCCC1)c1cc2ccccc2[nH]1
- EC50: > 200 µM
- IC50: > 200 µM

SMILES: CC1=C(C(=S)Nc2ccc(Cl)c(C(=O)OC(C)C)c2)SCCO1
- EC50: 0.024 µM
- IC50: 64.6 µM

SMILES: COc1cc(/C=C2/SC(c3ccccc3)N(c3ccc(NC(C)=O)cc3)C2=O)cc(OC)c1OC (stereo unspecified)
- EC50: > 200 µM
- IC50: 117 µM

SMILES: COc1cc(/C=C2/SC(=S)NC2=O)cc(OC)c1O
- outcome: inactive

SMILES: CC(C(=O)O)N(N=O)c1ccccc1 (stereo unspecified)
- EC50: > 676 µM
- IC50: > 676 µM

SMILES: CC1(C)OC2C(O1)[C@H]1OC(C(Cl)(Cl)Cl)=N[C@H]1C(I)[C@H]2N1C(=O)c2ccccc2C1=O (stereo partly specified)
- EC50: > 200 µM
- IC50: 110 µM

SMILES: Cc1ccc2c(c1)SC(c1cc3c(cc1Br)OCO3)S2 (stereo unspecified)
- EC50: > 50.1 µM
- IC50: > 50.1 µM

SMILES: Cc1c2ccccc2nc(CN2CCOCC2)[n+]1[O-]
- EC50: > 200 µM
- IC50: > 200 µM

SMILES: CC(=O)O[C@H]1C#C/C=C\C#CC[C@@H]2C(=O)N[C@@H]12
- EC50: > 20 µM
- IC50: 1.02 µM

SMILES: COC(=O)CC[C@@H](C)C1CCC2(C)c3ccc4c(c3C(=O)C[C@]12C)CC[C@H](OC(C)=O)C4(C)C (stereo partly specified)
- EC50: > 100 µM
- IC50: > 100 µM

SMILES: CO/C=C/CCCNCc1ccccc1
- EC50: > 457 µM
- IC50: > 457 µM

SMILES: CN=C(N)NC
- EC50: > 1480 µM
- IC50: > 1480 µM

SMILES: Cc1cccc2c1C(=O)OC2(c1cccc2ccccc12)c1cccc2ccccc12
- outcome: inactive

SMILES: NC(=S)NNC(=O)/C(=C/c1ccc(/C=C(\NC(=O)c2ccccc2)C(=O)NNC(N)=S)cc1)NC(=O)c1ccccc1
- EC50: > 8.71 µM
- IC50: > 8.71 µM

SMILES: CCOC(=O)NC(Nc1ccc(S(=O)(=O)Nc2nc(C)cc(C)n2)cc1)(C(=O)OCC)C(F)(F)F (stereo unspecified)
- EC50: > 200 µM
- IC50: > 200 µM

SMILES: Cc1cc(NS(=O)(=O)c2ccc(NC(=O)c3ccc(Cl)c4c(Nc5ccc(S(=O)(=O)N=C(N)N)cc5)c5ccccc5nc34)cc2)no1
- EC50: > 51.3 µM
- IC50: > 51.3 µM

SMILES: CC1(C)OC2C(COCc3ccccc3)=CC(n3ccc(=O)[nH]c3=O)C2O1 (stereo unspecified)
- EC50: > 200 µM
- IC50: > 200 µM

SMILES: O=c1c2cc([N+](=O)[O-])cnc2sn1-c1ccc([N+](=O)[O-])cc1
- EC50: > 200 µM
- IC50: 63.1 µM

SMILES: O=C(c1ccc([N+](=O)[O-])cc1[N+](=O)[O-])N(/N=C/C=C/c1ccccc1)c1nnc(-c2ccccc2)c(-c2ccccc2)n1
- EC50: > 9.12 µM
- IC50: > 9.12 µM

SMILES: Cc1ccc(S(=O)(=O)NC(=O)Nc2nc(Cl)cc(Cl)n2)cc1
- EC50: > 100 µM
- IC50: 87.1 µM

SMILES: CN(C(=O)C1(C(=O)C=[N+]=[N-])CC1)c1ccccc1
- EC50: > 1020 µM
- IC50: > 1020 µM

SMILES: CCC(=O)C1(N2CCOCC2)CCN(CCCC(=O)c2ccc(F)cc2)CC1
- EC50: > 200 µM
- IC50: > 200 µM

SMILES: COc1ccc2nc3ccc(OC)cc3c(SCC3CO3)c2c1 (stereo unspecified)
- EC50: > 200 µM
- IC50: 3.63 µM

SMILES: O=C1C2=C(CC3=C(C2)CS(=O)(=O)C3)C(=O)C2=C1CC1=C(C2)CS(=O)(=O)C1
- EC50: > 200 µM
- IC50: 6.03 µM

SMILES: CC/C(=C(\c1ccccc1)c1ccc(OCCN(C)C)cc1)c1ccccc1
- EC50: > 83.2 µM
- IC50: 14.8 µM

SMILES: O=C(O)c1ccc(S(=O)(=O)c2ccccc2)c([N+](=O)[O-])c1
- EC50: > 2510 µM
- IC50: 288 µM

SMILES: COc1cc2cnc3c4cc(OC)c(OC(C)C)cc4ccc3c2cc1OC
- EC50: > 5.37 µM
- IC50: > 5.37 µM

SMILES: CCN(CC)CCSSCCN(CC)CC
- EC50: > 200 µM
- IC50: 38.9 µM

SMILES: CSc1nnc(SC)nn1
- EC50: > 200 µM
- IC50: 0.851 µM

SMILES: COc1cc2c[n+](C)c3c4cc5c(cc4ccc3c2cc1OC)OCO5
- EC50: > 17.8 µM
- IC50: 0.437 µM

SMILES: CCOC(CN=c1nc(N(C)C)ss1)OCC
- outcome: inactive

SMILES: Cc1ccc(SSc2ccc([N+](=O)[O-])cc2[N+](=O)[O-])cc1
- EC50: > 200 µM
- IC50: 9.12 µM

SMILES: COC(C(=O)CN(C)C)(c1ccccc1)c1ccccc1
- EC50: > 200 µM
- IC50: 141 µM

SMILES: COC(=O)c1cc(C(c2cc(C(=O)OC)c(OC)c(Br)c2C)C(Cl)Cl)c(C)c(Br)c1OC
- EC50: > 200 µM
- IC50: 10 µM

SMILES: CC(C)(C)OC(=O)NC(CCC(=O)OCc1ccccc1)C(=O)NCCCO (stereo unspecified)
- EC50: > 200 µM
- IC50: > 200 µM

SMILES: CCNc1c(C(=O)N(CC)CC)c(=O)[nH]c2ncccc12
- EC50: > 871 µM
- IC50: > 871 µM

SMILES: O=C1[C@@H]2[C@@H](CN3CN(c4ccccc4)N=C(c4ccccc4)[C@@]23c2ccccc2)C(=O)N1c1ccccc1
- EC50: > 20 µM
- IC50: 2.95 µM

SMILES: CC(=O)NC1(C)C2CCC3(C)N=C(C)C1CC3C2 (stereo unspecified)
- outcome: inactive

SMILES: C=CC(=O)C#Cc1cnc(OC)nc1OC
- EC50: > 200 µM
- IC50: 1.1 µM

SMILES: CCN(CC)C(=S)N/N=C/c1cc(OC)ccc1O
- EC50: > 200 µM
- IC50: 10 µM

SMILES: Cc1ncc([N+](=O)[O-])n1CC(O)Cn1ccnc1[N+](=O)[O-] (stereo unspecified)
- EC50: > 200 µM
- IC50: > 200 µM

SMILES: CC1Cc2c(Br)nc(N)nc2NC1=O (stereo unspecified)
- EC50: > 200 µM
- IC50: > 200 µM

SMILES: O=C1NC2CC1C(O)C2O (stereo unspecified)
- EC50: > 200 µM
- IC50: > 200 µM
